Measurements taken from publication PMC6591251, “Discovery of potent necroptosis inhibitors targeting RIPK1 kinase activity for the treatment of inflammatory disorder and cancer metastasis” (Cell Death & Disease, 2019).

Legend:
Assay in all cases: RBC kinase panel
Assay type in all cases: biochemical
WEE1 = molecular target: T1, WEE1 (Homo sapiens, UniProt P30291); conditions: ATP 10 μM, Data1, Data2
T1 construct: purchased Reaction Biology Corporation
Method in brief: (§1)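 Duplicate determinations were made for each of 369 human kinases exposed to 1 μM compound, with reactions run at 10 μM ATP.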

RSK2 = molecular target: T2, RSK2 (Homo sapiens, UniProt P51812); conditions: ATP 10 μM, Data1, Data2
T2 construct: purchased Reaction Biology Corporation
T2 sequence (P51812 whole entry): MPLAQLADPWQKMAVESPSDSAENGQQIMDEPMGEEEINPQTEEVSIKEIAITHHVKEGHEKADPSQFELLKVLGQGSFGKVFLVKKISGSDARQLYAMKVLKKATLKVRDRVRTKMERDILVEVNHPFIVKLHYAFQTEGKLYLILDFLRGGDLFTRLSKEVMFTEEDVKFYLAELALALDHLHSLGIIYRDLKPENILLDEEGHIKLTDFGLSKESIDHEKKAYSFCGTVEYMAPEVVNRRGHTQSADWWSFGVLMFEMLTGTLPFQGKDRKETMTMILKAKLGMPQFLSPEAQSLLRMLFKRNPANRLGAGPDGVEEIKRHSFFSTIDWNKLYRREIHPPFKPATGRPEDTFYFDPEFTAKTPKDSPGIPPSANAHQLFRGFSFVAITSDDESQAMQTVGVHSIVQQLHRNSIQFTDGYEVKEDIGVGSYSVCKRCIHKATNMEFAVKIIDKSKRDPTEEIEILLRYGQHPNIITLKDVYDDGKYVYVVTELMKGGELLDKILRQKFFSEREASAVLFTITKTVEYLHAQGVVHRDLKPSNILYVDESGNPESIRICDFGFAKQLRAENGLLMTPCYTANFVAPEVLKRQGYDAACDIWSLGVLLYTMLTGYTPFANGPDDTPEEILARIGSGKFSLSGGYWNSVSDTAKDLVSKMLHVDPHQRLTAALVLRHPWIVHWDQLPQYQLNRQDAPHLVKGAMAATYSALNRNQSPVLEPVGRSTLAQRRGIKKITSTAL
Method in brief: as §1

PKAcg = molecular target: T3, PKAcg (Homo sapiens, UniProt P22612); conditions: ATP 10 μM, Data1, Data2
T3 construct: purchased Reaction Biology Corporation
T3 sequence (P22612 whole entry): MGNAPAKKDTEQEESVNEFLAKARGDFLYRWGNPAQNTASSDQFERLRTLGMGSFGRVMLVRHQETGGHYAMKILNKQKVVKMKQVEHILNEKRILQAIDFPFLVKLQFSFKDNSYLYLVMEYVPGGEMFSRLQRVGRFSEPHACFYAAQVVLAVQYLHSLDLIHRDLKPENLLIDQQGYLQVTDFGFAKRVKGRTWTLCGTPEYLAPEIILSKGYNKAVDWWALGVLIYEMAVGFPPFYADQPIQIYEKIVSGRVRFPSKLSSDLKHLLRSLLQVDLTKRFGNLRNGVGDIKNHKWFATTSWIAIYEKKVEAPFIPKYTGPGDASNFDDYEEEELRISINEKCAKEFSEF
Method in brief: as §1

KHS/MAP4K5 = molecular target: T4, KHS/MAP4K5 (Homo sapiens, UniProt Q9Y4K4); conditions: ATP 10 μM, Data1, Data2
T4 construct: purchased Reaction Biology Corporation
Method in brief: as §1

EPHB1 = molecular target: T5, EPHB1 (Homo sapiens, UniProt P54762); conditions: ATP 10 μM, Data1, Data2
T5 construct: purchased Reaction Biology Corporation
Method in brief: as §1

IR = molecular target: T6, IR (Homo sapiens, UniProt P06213); conditions: ATP 10 μM, Data1, Data2
T6 construct: purchased Reaction Biology Corporation
Method in brief: as §1

TBK1 = molecular target: T7, TBK1 (Homo sapiens, UniProt Q9UHD2); conditions: ATP 10 μM, Data1, Data2
T7 construct: purchased Reaction Biology Corporation
Method in brief: as §1

CDK4/cyclin D3 = molecular target: T8, CDK4/cyclin D3 (Homo sapiens, UniProt P11802); conditions: ATP 10 μM, Data1, Data2
T8 construct: purchased Reaction Biology Corporation
Method in brief: as §1

PRKX = molecular target: T9, PRKX (Homo sapiens, UniProt P51817); conditions: ATP 10 μM, Data1, Data2
T9 construct: purchased Reaction Biology Corporation
Method in brief: as §1

MARK4 = molecular target: T10, MARK4 (Homo sapiens, UniProt Q96L34); conditions: ATP 10 μM, Data1, Data2
T10 construct: purchased Reaction Biology Corporation
T10 sequence (Q96L34 whole entry): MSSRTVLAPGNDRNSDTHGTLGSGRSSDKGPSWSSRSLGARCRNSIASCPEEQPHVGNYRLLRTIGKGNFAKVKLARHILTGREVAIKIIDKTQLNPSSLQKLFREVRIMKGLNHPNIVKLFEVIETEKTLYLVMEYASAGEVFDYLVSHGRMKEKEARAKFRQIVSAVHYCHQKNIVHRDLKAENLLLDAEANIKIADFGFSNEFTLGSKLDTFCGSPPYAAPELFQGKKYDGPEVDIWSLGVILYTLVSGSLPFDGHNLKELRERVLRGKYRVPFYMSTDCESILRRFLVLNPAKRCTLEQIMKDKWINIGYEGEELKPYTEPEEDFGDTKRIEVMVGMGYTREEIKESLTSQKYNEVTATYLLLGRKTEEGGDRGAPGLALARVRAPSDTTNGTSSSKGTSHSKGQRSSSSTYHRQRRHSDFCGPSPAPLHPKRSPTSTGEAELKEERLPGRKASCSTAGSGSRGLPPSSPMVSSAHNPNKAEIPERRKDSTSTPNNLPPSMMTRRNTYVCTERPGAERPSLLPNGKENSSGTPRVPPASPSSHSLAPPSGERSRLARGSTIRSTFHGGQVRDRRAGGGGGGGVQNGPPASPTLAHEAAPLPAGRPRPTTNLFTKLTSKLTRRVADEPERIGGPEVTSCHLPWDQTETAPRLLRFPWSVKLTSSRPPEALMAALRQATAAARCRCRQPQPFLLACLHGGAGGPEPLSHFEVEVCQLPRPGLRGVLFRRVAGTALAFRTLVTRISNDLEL
Method in brief: as §1

LRRK2 = molecular target: T11, LRRK2 (Homo sapiens, UniProt Q5S007); conditions: ATP 10 μM, Data1, Data2
T11 construct: purchased Reaction Biology Corporation
Method in brief: as §1

LIMK1 = molecular target: T12, LIMK1 (Homo sapiens, UniProt P53667); conditions: ATP 10 μM, Data1, Data2
T12 construct: purchased Reaction Biology Corporation
Method in brief: as §1

BMPR2 = molecular target: T13, BMPR2 (Homo sapiens, UniProt Q13873); conditions: ATP 10 μM, Data1, Data2
T13 construct: purchased Reaction Biology Corporation
Method in brief: as §1

RIPK2 = molecular target: T14, RIPK2 (Homo sapiens, UniProt O43353); conditions: ATP 10 μM, Data1, Data2
T14 construct: purchased Reaction Biology Corporation
Method in brief: as §1

GSK3a = molecular target: T15, GSK3a (Homo sapiens, UniProt P49840); conditions: ATP 10 μM, Data1, Data2
T15 construct: purchased Reaction Biology Corporation
Method in brief: as §1

MST2/STK3 = molecular target: T16, MST2/STK3 (Homo sapiens, UniProt Q13188); conditions: ATP 10 μM, Data1, Data2
T16 construct: purchased Reaction Biology Corporation
Method in brief: as §1

CDK18/cyclin Y (PCTK3) = molecular target: T17, CDK18/cyclin Y (PCTK3) (Homo sapiens, UniProt Q07002); conditions: ATP 10 μM, Data1, Data2
T17 construct: purchased Reaction Biology Corporation
Method in brief: as §1

GRK4 = molecular target: T18, GRK4 (Homo sapiens, UniProt P32298); conditions: ATP 10 μM, Data1, Data2
T18 construct: purchased Reaction Biology Corporation
Method in brief: as §1

GRK7 = molecular target: T19, GRK7 (Homo sapiens, UniProt Q8WTQ7); conditions: ATP 10 μM, Data1, Data2
T19 construct: purchased Reaction Biology Corporation
Method in brief: as §1

TRKC = molecular target: T20, TRKC (Homo sapiens, UniProt Q16288)
T20 construct: purchased Reaction Biology Corporation
T20 sequence (Q16288 32-839): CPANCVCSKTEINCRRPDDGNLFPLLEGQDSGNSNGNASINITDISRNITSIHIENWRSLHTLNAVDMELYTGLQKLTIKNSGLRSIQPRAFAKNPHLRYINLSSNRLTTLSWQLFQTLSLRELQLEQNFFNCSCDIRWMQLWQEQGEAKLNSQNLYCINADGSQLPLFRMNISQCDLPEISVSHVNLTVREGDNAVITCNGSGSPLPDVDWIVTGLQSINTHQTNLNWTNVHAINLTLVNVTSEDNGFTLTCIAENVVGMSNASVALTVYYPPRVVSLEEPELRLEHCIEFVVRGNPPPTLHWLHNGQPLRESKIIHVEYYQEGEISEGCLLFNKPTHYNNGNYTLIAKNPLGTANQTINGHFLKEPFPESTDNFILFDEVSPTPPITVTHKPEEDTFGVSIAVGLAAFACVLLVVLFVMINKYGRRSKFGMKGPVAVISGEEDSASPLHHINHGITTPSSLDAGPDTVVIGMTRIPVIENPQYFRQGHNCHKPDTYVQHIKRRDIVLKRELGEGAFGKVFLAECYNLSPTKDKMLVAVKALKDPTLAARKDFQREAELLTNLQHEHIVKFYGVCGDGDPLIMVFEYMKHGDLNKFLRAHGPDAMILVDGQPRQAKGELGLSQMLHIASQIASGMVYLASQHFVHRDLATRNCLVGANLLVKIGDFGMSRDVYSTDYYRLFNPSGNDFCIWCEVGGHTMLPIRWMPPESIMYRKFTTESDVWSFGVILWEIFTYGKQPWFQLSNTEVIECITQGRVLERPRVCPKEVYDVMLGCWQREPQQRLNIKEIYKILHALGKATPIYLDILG
Method in brief: as §1

GRK1 = molecular target: T21, GRK1 (Homo sapiens, UniProt Q15835); conditions: ATP 10 μM, Data1, Data2
T21 construct: purchased Reaction Biology Corporation
Method in brief: as §1

AKT1 = molecular target: T22, AKT1 (Homo sapiens, UniProt P31749); conditions: ATP 10 μM, Data1, Data2
T22 construct: purchased Reaction Biology Corporation
Method in brief: as §1

p70S6Kb/RPS6KB2 = molecular target: T23, p70S6Kb/RPS6KB2 (Homo sapiens, UniProt Q9UBS0); conditions: ATP 10 μM, Data1, Data2
T23 construct: purchased Reaction Biology Corporation
Method in brief: as §1

TXK = molecular target: T24, TXK (Homo sapiens, UniProt P42681); conditions: ATP 10 μM, Data1, Data2
T24 construct: purchased Reaction Biology Corporation
Method in brief: as §1

PKCg = molecular target: T25, PKCg (Homo sapiens, UniProt P05129); conditions: ATP 10 μM, Data1, Data2
T25 construct: purchased Reaction Biology Corporation
Method in brief: as §1

MAPKAPK2 = molecular target: T26, MAPKAPK2 (Homo sapiens, UniProt P49137); conditions: ATP 10 μM, Data1, Data2
T26 construct: purchased Reaction Biology Corporation
Method in brief: as §1

ERN2/IRE2 = molecular target: T27, ERN2/IRE2 (Homo sapiens, UniProt Q76MJ5); conditions: ATP 10 μM, Data1, Data2
T27 construct: purchased Reaction Biology Corporation
T27 sequence (Q76MJ5 35-926): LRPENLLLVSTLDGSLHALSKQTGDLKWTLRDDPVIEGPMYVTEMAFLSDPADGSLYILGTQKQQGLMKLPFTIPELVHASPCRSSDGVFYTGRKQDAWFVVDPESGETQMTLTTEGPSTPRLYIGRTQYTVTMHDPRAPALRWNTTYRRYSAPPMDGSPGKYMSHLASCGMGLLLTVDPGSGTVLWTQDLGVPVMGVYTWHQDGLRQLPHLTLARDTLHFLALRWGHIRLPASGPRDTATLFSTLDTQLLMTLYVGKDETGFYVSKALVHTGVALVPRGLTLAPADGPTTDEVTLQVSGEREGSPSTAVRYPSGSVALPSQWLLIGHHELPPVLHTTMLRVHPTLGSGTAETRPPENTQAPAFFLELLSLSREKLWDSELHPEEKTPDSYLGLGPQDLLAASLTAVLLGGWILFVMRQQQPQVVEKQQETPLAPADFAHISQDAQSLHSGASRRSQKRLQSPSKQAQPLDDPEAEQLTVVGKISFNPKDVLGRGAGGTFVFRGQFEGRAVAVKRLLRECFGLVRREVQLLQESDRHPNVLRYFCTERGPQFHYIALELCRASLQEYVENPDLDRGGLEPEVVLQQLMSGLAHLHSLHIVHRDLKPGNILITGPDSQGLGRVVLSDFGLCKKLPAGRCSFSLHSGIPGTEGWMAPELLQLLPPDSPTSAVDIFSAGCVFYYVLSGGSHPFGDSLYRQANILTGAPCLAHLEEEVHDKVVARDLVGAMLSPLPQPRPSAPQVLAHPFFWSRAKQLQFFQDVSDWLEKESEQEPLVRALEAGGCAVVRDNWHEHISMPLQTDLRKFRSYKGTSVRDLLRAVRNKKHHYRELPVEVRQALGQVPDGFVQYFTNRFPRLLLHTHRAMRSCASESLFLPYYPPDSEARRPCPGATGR
Method in brief: as §1

EPHB2 = molecular target: T28, EPHB2 (Homo sapiens, UniProt P29323); conditions: ATP 10 μM, Data1, Data2
T28 construct: purchased Reaction Biology Corporation
Method in brief: as §1

MELK = molecular target: T29, MELK (Homo sapiens, UniProt Q14680); conditions: ATP 10 μM, Data1, Data2
T29 construct: purchased Reaction Biology Corporation
T29 sequence (Q14680 whole entry): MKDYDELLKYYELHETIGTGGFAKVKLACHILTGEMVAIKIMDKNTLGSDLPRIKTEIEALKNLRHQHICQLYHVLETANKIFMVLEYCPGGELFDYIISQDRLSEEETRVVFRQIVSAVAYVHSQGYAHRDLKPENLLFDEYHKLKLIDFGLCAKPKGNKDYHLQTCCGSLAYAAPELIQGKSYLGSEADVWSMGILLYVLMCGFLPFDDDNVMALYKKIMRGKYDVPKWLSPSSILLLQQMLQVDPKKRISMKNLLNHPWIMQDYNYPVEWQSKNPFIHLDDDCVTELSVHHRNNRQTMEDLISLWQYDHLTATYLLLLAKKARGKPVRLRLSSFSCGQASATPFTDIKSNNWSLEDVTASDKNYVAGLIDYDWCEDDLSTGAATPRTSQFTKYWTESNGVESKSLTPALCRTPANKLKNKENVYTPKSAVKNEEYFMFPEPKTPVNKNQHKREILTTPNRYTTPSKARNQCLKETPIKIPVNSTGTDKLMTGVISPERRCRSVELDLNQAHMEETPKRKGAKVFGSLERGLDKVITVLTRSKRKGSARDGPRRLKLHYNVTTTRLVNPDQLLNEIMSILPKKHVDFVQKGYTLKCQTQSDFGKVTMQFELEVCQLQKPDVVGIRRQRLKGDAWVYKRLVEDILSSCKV
Method in brief: as §1

PKAcb = molecular target: T30, PKAcb (Homo sapiens, UniProt P22694); conditions: ATP 10 μM, Data1, Data2
T30 construct: purchased Reaction Biology Corporation
Method in brief: as §1

FER = molecular target: T31, FER (Homo sapiens, UniProt P16591); conditions: ATP 10 μM, Data1, Data2
T31 construct: purchased Reaction Biology Corporation
Method in brief: as §1

CSK = molecular target: T32, CSK (Homo sapiens, UniProt P41240); conditions: ATP 10 μM, Data1, Data2
T32 construct: purchased Reaction Biology Corporation
T32 sequence (P41240 whole entry): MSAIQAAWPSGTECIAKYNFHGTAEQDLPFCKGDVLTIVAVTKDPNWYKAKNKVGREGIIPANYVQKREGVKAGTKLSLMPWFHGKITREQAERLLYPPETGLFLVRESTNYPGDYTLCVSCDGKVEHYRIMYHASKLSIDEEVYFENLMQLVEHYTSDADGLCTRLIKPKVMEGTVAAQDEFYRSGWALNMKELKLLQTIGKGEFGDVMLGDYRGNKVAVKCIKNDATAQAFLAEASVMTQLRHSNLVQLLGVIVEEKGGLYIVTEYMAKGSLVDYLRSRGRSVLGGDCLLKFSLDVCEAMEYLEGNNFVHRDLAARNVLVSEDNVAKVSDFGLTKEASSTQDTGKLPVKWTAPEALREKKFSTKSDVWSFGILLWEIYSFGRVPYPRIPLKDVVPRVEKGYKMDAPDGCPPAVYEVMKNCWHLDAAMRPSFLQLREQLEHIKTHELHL
Method in brief: as §1

P38d/MAPK13 = molecular target: T33, P38d/MAPK13 (Homo sapiens, UniProt O15264); conditions: ATP 10 μM, Data1, Data2
T33 construct: purchased Reaction Biology Corporation
T33 sequence (O15264 whole entry): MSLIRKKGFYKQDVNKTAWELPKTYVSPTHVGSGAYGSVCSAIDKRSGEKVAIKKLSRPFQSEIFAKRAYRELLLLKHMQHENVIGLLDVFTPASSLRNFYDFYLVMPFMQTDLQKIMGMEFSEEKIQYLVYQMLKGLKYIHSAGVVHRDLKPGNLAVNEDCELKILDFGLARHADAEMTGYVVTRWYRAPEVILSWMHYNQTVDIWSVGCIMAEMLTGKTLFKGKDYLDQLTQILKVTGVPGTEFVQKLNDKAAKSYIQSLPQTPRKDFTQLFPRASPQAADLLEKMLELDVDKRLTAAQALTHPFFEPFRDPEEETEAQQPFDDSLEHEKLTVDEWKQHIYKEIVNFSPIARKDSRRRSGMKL
Method in brief: as §1

Structure (SMILES): CC(=O)Nc1nc2ccc(-c3cnc(C)c(NC(=O)OC4CCCCC4)c3)cc2s1 [PK68, cyclohexyl (5-(2-acetamidobenzo[d]thiazol-6-yl)-2-methylpyridin-3-yl)carbamate]
- Activity% (WEE1; 1 μM): 94.05%
- activity at 1 µM (WEE1): 95.7%
- Activity% (RSK2; 1 μM): 90.87%
- activity at 1 µM (RSK2): 92.3%
- Activity% (PKAcg; 1 μM): 94.66%
- activity at 1 µM (PKAcg): 95.6%
- Activity% (KHS/MAP4K5; 1 μM): 75.34%
- activity at 1 µM (KHS/MAP4K5): 76.5%
- Activity% (EPHB1; 1 μM): 95.01%
- activity at 1 µM (EPHB1): 95.5%
- Activity% (IR; 1 μM): 81.00%
- activity at 1 µM (IR): 81.6%
- Activity% (TBK1; 1 μM): 96.55%
- activity at 1 µM (TBK1): 97%
- Activity% (CDK4/cyclin D3; 1 μM): 93.75%
- activity at 1 µM (CDK4/cyclin D3): 94.2%
- Activity% (PRKX; 1 μM): 103.46%
- activity at 1 µM (PRKX): 104%
- Activity% (MARK4; 1 μM): 101.55%
- activity at 1 µM (MARK4): 103%
- Activity% (LRRK2; 1 μM): 66.88%
- activity at 1 µM (LRRK2): 67.7%
- Activity% (LIMK1; 1 μM): 63.37%
- activity at 1 µM (LIMK1): 63.4%
- Activity% (BMPR2; 1 μM): 95.12%
- activity at 1 µM (BMPR2): 95.5%
- Activity% (RIPK2; 1 μM): 85.19%
- activity at 1 µM (RIPK2): 91.2%
- Activity% (GSK3a; 1 μM): 101.33%
- activity at 1 µM (GSK3a): 102%
- Activity% (MST2/STK3; 1 μM): 109.16%
- activity at 1 µM (MST2/STK3): 109%
- Activity% (CDK18/cyclin Y (PCTK3); 1 μM): 106.96%
- activity at 1 µM (CDK18/cyclin Y (PCTK3)): 107%
- Activity% (GRK4; 1 μM): 103.31%
- activity at 1 µM (GRK4): 107%
- Activity% (GRK7; 1 μM): 95.94%
- activity at 1 µM (GRK7): 96.5%
- Activity% (TRKC; 1 μM, ATP 10 μM, Data1, Data2): 33.96%
- activity at 1 µM (TRKC; 1 μM, ATP 10 μM, Data1, Data2): 35.4%
- inhibition at 1 µM (TRKC; at 1000 nM): > 50%
- Activity% (GRK1; 1 μM): 99.42%
- activity at 1 µM (GRK1): 100%
- Activity% (AKT1; 1 μM): 99.12%
- activity at 1 µM (AKT1): 99.2%
- Activity% (p70S6Kb/RPS6KB2; 1 μM): 95.50%
- activity at 1 µM (p70S6Kb/RPS6KB2): 98.8%
- Activity% (TXK; 1 μM): 99.58%
- activity at 1 µM (TXK): 101%
- Activity% (PKCg; 1 μM): 95.02%
- activity at 1 µM (PKCg): 95.8%
- Activity% (MAPKAPK2; 1 μM): 100.37%
- activity at 1 µM (MAPKAPK2): 101%
- Activity% (ERN2/IRE2; 1 μM): 92.56%
- activity at 1 µM (ERN2/IRE2): 93.1%
- Activity% (EPHB2; 1 μM): 101.30%
- activity at 1 µM (EPHB2): 102%
- Activity% (MELK; 1 μM): 100.40%
- activity at 1 µM (MELK): 102%
- Activity% (PKAcb; 1 μM): 100.88%
- activity at 1 µM (PKAcb): 103%
- Activity% (FER; 1 μM): 100.70%
- activity at 1 µM (FER): 102%
- Activity% (CSK; 1 μM): 91.36%
- activity at 1 µM (CSK): 92.8%
- Activity% (P38d/MAPK13; 1 μM): 95.45%
- activity at 1 µM (P38d/MAPK13): 95.8%
